Source: the NIST ThermoML archive (doi:10.1021/je400858t)

What was measured:
[1] = for mass density / thermal conductivity / viscosity: 101.33 kPa, Liquid; for mass density: Vibrating tube method; for thermal conductivity: Parallel plate method; for viscosity: Cone and plate viscometry; for Glass transition temperature: DTA
[2] = molar heat capacity at constant pressure; conditions: 101.33 kPa, Liquid, Small sample (50 mg) DSC

CCCCCC[n+]1ccn(C)c1.O=S(=O)([N-]S(=O)(=O)C(F)(F)F)C(F)(F)F
[1]
Conditions | mass density [kg/m3] | thermal conductivity [W/m/K]
283 K | 1385.63 | –
293 K | 1376.5 | –
300 K | – | 0.12
303 K | 1367.38 | –
313 K | 1358.3 | –
323 K | 1349.27 | –
333 K | 1340.34 | –
343 K | 1331.41 | –
353 K | 1322.54 | –
363 K | 1313.73 | –
375 K | – | 0.12

CCOP(=O)([O-])OCC.CCn1cc[n+](C)c1 [1-ethyl-3-methylimidazolium diethyl phosphate]
Conditions | molar heat capacity at constant pressure [J/K/mol] | thermal conductivity [W/m/K] | viscosity [mPa·s]
[1], 283 K | – | – | 1280
[1], 293 K | – | – | 580
[1], 298 K | – | – | 410
[1], 300 K | – | 0.19 | –
[1], 303 K | – | – | 300
[1], 313 K | – | – | 168
[1], 323 K | – | – | 101
[1], 333 K | – | – | 66
[1], 343 K | – | – | 45
[1], 375 K | – | 0.19 | –
[2], 298 K | 459.81 | – | –
[2], 303 K | 465.1 | – | –
[2], 308 K | 467.74 | – | –
[2], 313 K | 470.38 | – | –
[2], 318 K | 475.67 | – | –
[2], 323 K | 478.31 | – | –
[2], 328 K | 480.95 | – | –
[2], 333 K | 486.24 | – | –
[2], 338 K | 488.88 | – | –
[2], 343 K | 494.16 | – | –

Conditions | Glass transition temperature [°C]
[1] | -66

CCn1cc[n+](C)c1.CS(=O)(=O)[O-] [1-ethyl-3-methylimidazolium methanesulfonate]
[1]
Conditions | thermal conductivity [W/m/K] | viscosity [mPa·s]
283 K | – | 450
293 K | – | 210
298 K | – | 155
300 K | 0.21 | –
303 K | – | 117
313 K | – | 70
323 K | – | 45
333 K | – | 31
343 K | – | 23
375 K | 0.21 | –

Conditions | Glass transition temperature [°C]
[1] | -62

CCn1cc[n+](C)c1.N#C[S-] [1-ethyl-3-methylimidazolium thiocyanate]
[1]
Conditions | thermal conductivity [W/m/K]
300 K | 0.21
375 K | 0.21

Conditions | Glass transition temperature [°C]
[1] | -94

CCn1cc[n+](C)c1.O=C([O-])C(F)(F)F [1-ethyl-3-methylimidazolium trifluoroacetate]
[1]
Conditions | thermal conductivity [W/m/K]
300 K | 0.17
375 K | 0.17

CCn1cc[n+](C)c1.O=S(=O)([O-])C(F)(F)F [1-ethyl-3-methylimidazolium trifluoromethanesulfonate]
[1]
Conditions | thermal conductivity [W/m/K]
300 K | 0.16
375 K | 0.16
